# Measured values from paper PMC11434840, “Discovery of Benzopyrone-Based Candidates as Potential Antimicrobial and Photochemotherapeutic Agents through Inhibition of DNA Gyrase Enzyme B: Design, Synthesis, In Vitro and In Silico Evaluation” (Pharmaceuticals, 2024).
# Where two headings read alike, the source gives them in different places.
# Columns and labels:
# [1] = tested on: Staphylococcus aureus ATCC 25923; test: Antimicrobial agar cup-plate assay, S. aureus; type: cell-based; design: key: -: no activity; details: 0.1 mL of compound in DMF, overnight incubation, mean ± SD, at least three experiments
# Description: (§1) The antimicrobial activity of all newly synthesized compounds was determined using the agar cup-plate method using the Hi-Media agar medium. Xanthotoxin, tobramycin, and amphotericin B were used as reference drugs. All newly synthesized compounds were tested against two strains of Gram-positive bacteria (Bacillus subtilis ATCC 14579 and Staphylococcus aureus ATCC 25923), Gram-negative bacteria (Escherichia coli ATCC 25922), and yeast (Candida albicans ATCC 10231).
# (§2) The nutrient agar medium consists of 0.3% of beef extract, 0.5% of peptone, 0.1% dipotassium hydrogen phosphate, and 1.5% agar. Broth cultures of the organisms were prepared by incubating slant agar seeded with the organisms overnight.
# (§3) The prepared broth culture (0.02 mL) was carefully added to sterile Petri dishes. Then, 10 mL of the liquefied nutrient agar medium was poured into each dish, mixed uniformly, and allowed to solidify. Using a sterilized cork borer, cups (9 mm) were scooped out of the agar media contained in the Petri dishes. Each test compound (50 mg) was dissolved in 1 mL DMF (50 mg mL^−1), which was used as a stock solution to carry out the twofold dilution technique. A fixed volume (0.1 mL) of the tested compounds dissolved in dimethylformamide (DMF) was added. Each plate contained a cup filled with DMF to disregard the effect of solvent. Additionally, two other cups were filled with tobramycin and xanthotoxin being used as reference drugs. The plates were incubated overnight to examine the antimicrobial activity. Zones of inhibition obtained by each test compound were measured in millimeters and the results are recorded in Table 2.
# (§4) GraphPad Prism-version 5 (GraphPad Software, Inc., La Jolla, CA, USA) was used for statistical analysis.
# [2] = tested on: Bacillus subtilis ATCC 14579; test: Photosensitizing assay (MIC before and after UV irradiation, agar cup-plate); type: cell-based; design: key to MIC (mg mL^−1) Control / MIC (mg mL^−1) Test / MIC (mM) Control / MIC (mM) Test: -: no activity; details: B. subtilis; for MIC: Bacillus subtilis, ATCC14579, light or radiation study
# Description: The photosensitizing activity was determined using the agar cup-plate method (described in Section 2.3) with Hi-Media agar medium. The antibacterial activity against Bacillus subtilis ATCC 14579 was measured before and after exposure to UV lamp (365 nm). The diameters of the inhibition zones were measured in mm and the results were compared with xanthotoxin. The tested organism used was Bacillus subtilis.
# For the photosensitizing activity, xanthotoxin was used as a reference drug and DMF as a negative control. The minimum inhibitory concentrations (MIC) were determined using the agar cup-plate method. Each test compound (50 mg) was dissolved in 1 mL DMF (50 mg mL^−1), which was used as a stock solution to carry out the twofold dilution technique. The sample size for all the compounds was adjusted to 0.1 mL. The solution of the test compound (0.1 mL) was added to the cups. The plates were divided into test plates and duplicate plates. Before irradiation, the test plates were incubated in the dark at 37 °C for 3 h to permit the diffusion of the tested compounds through the agar layer. The duplicate plates were incubated overnight and used as a control for the determination of the antibacterial activity. The covers were removed from the test plates, and the dishes were exposed to UV lamp (365 nm) for 20 min. After irradiation, the plates were left overnight in the dark at 37 °C. MIC, the least concentration preventing visible bacterial growth, was determined in both the control and test, indicating the antibacterial and photosensitizing activity of the tested compounds, respectively.
# To evaluate the significance of the difference in the results, each experiment was repeated at least three times. […] GraphPad Prism-version 5 (GraphPad Software, Inc., La Jolla, CA, USA) was used to perform statistical analysis of the results.
# [3] = tested on: Bacillus subtilis ATCC 14579; test: Antimicrobial agar cup-plate assay, B. subtilis; type: cell-based; design: key: -: no activity; details: 0.1 mL of compound in DMF, overnight incubation, mean ± SD, at least three experiments
# Description: as §1, §2, §3, §4
# [4] = tested on: Candida albicans ATCC 10231; test: Antimicrobial agar cup-plate assay, C. albicans; type: cell-based; design: key to Inhibition Zone (mm) C. albicans: -: no activity; details: 0.1 mL of compound in DMF, overnight incubation, mean ± SD, at least three experiments
# Description: as §1, §2, §3, §4
# [5] = tested on: Escherichia coli ATCC 25922; test: Antimicrobial agar cup-plate assay, E. coli; type: cell-based; details: 0.1 mL of compound in DMF, overnight incubation, mean ± SD, at least three experiments
# Description: as §1, §2, §3, §4
# [6] = 20 min, after irradiation with UV lamp (365 nm) for 20 min (photosensitizing activity), 100 μL per cup, read-out: MIC (mg mL^−1) Test
# [7] = 20 min, after irradiation with UV lamp (365 nm) for 20 min (photosensitizing activity), read-out: MIC (mM) Test
# [8] = without irradiation (antibacterial activity), 100 μL per cup, read-out: MIC (mg mL^−1) Control
# [9] = without irradiation (antibacterial activity), read-out: MIC (mM) Control
# [10] = after irradiation with UV lamp (365 nm) for 20 min (photosensitizing activity)
# [11] = after irradiation with UV lamp (365 nm) for 20 min (photosensitizing activity), 100 μL per cup
# [12] = without irradiation (antibacterial activity)
# [13] = without irradiation (antibacterial activity), 100 μL per cup
Structure (SMILES),Inhibition Zone (mm) S. aureus [1],"MIC [2, 6]","MIC [2, 7]","MIC [2, 8]","MIC [2, 9]",Inhibition Zone (mm) B. subtilis [3],Inhibition Zone (mm) C. albicans [4],Inhibition Zone (mm) E. coli [5],melting point,"MIC (mM) Test [2, 10]","MIC (mg mL^−1) Test [2, 11]","MIC (mM) Control [2, 12]","MIC (mg mL^−1) Control [2, 13]"
"CCc1cc2c(C)cc(=O)oc2c2c1oc1ccccc12 [Compound 6a, 6-Ethyl-4-methyl-2H-benzofuro[2,3-h]benzopyran-2-one]",30 ± 1.414 mm,390 µg/mL,1.4 mM,3120 µg/mL,11.2 mM,20 ± 1.414 mm,21 ± 0.8165 mm,23 ± 1.414 mm,120 to 122 °C,,,,
"CCc1cc2c(-c3ccccc3)cc(=O)oc2c2c1oc1ccccc12 [Compound 6b, 6-Ethyl-4-phenyl-2H-benzofuro[2,3-h]benzopyran-2-one]",30 ± 1.414 mm,1500 µg/mL,4.41 mM,3120 µg/mL,9.18 mM,22 ± 1.414 mm,15 ± 1.414 mm,17 ± 1.414 mm,120 to 122 °C,,,,
"CCc1cc2c(C)cc(=O)oc2cc1OCC(=O)c1ccccc1 [Compound 7a, 6-Ethyl-4-methyl-7-phenacyloxy-2H-1-benzopyran-2-one]",28 ± 1.414 mm,1500 µg/mL,4.65 mM,6250 µg/mL,19.4 mM,12 ± 1.414 mm,-,20 ± 0.8165 mm,165 to 166 °C,,,,
"CCc1cc2c(C)cc(=O)oc2cc1OCC(=O)c1ccc(C)cc1 [Compound 7b, 6-Ethyl-4-methyl-7-(4-methylphenacyloxy)-2H-1-benzopyran-2-one]",24 ± 1.414 mm,190 µg/mL,0.56 mM,1500 µg/mL,4.46 mM,13 ± 1.414 mm,-,20 ± 1.414 mm,136 to 139 °C,,,,
"CCc1cc2c(C)cc(=O)oc2cc1OCC(=O)c1ccc(OC)cc1 [Compound 7c, 6-Ethyl-4-methyl-7-(4-methoxyphenacyloxy)-2H-1-benzopyran-2-one]",-,3120 µg/mL,8.87 mM,12500 µg/mL,35.5 mM,10 ± 1.414 mm,-,15 ± 1.414 mm,162 to 164 °C,,,,
"CCc1cc2c(-c3ccccc3)cc(=O)oc2cc1OCC(=O)c1ccccc1 [Compound 7d, 6-Ethyl-7-phenacyloxy-4-phenyl-2H-1-benzopyran-2-one]",-,6250 µg/mL,16.3 mM,6250 µg/mL,16.3 mM,9 ± 1.414 mm,-,16 ± 1.414 mm,153 to 155 °C,,,,
"CCc1cc2c(-c3ccccc3)cc(=O)oc2cc1OCC(=O)c1ccc(C)cc1 [Compound 7e, 6-Ethyl-7-(4-methylphenacyloxy)-4-phenyl-2H-1-benzopyran-2-one]",-,,,,,-,-,20 ± 0.8165 mm,225 to 226 °C,-,-,-,- ^d
"CCc1cc2c(-c3ccccc3)cc(=O)oc2cc1OCC(=O)c1ccc(OC)cc1 [Compound 7f, 6-Ethyl-7-(4-methoxyphenacyloxy)-4-phenyl-2H-1-benzopyran-2-one]",-,,,,,-,16 ± 0.8165 mm,23 ± 0.8165 mm,183 to 185 °C,-,-,-,-
"CCc1cc2c(C)cc(=O)oc2c2c(-c3ccc(OC)cc3)coc12 [Compound 8c, 9-Ethyl-3-(4-methoxyphenyl)-7-methyl-5H-furo[2,3-h]benzopyran-5-one]",20 ± 0.8165 mm,97 µg/mL,0.29 mM,780 µg/mL,2.33 mM,12 ± 1.414 mm,-,24 ± 1.414 mm,110 to 111 °C,,,,
"CCc1cc2c(-c3ccccc3)cc(=O)oc2c2c(-c3ccc(C)cc3)coc12 [Compound 8e, 9-Ethyl-3-(4-methylphenyl)-7-phenyl-5H-furo[2,3-h]benzopyran-5-one]",22 ± 1.414 mm,97 µg/mL,0.25 mM,390 µg/mL,1.03 mM,20 ± 1.414 mm,-,25 ± 0.8165 mm,80 to 81 °C,,,,
"CCc1cc2c(-c3ccccc3)cc(=O)oc2c2c(-c3ccc(OC)cc3)coc12 [Compound 8f, 9-Ethyl-3-(4-methoxyphenyl)-7-phenyl-5H-furo[2,3-h]benzopyran-5-one]",20 ± 1.414 mm,3120 µg/mL,7.88 mM,6250 µg/mL,15.8 mM,14 ± 1.414 mm,-,18 ± 0.8165 mm,150 to 153 °C,,,,
